ChEMBL document CHEMBL1122265, “Nitrogen bridgehead compounds. 33. New antiallergic 4H-pyrido[1,2-a]pyrimidin-4-ones. 2” (1983)
Activity calls are given as the source filed them. No cut-off for these calls is given here.

Assays:
[1] = system: Rattus norvegicus; experiment: Antiallergic activity in rat reaginic passive cutaneous anaphylaxis (PCA) test upon peroral administration; type: functional; conditions: po, read-out: ID50 (the source's name)
[2] = system: Rattus norvegicus; experiment: Antiallergic activity in rat reaginic passive cutaneous anaphylaxis (PCA) test upon intravenous administration; Insoluble; type: functional, organism-based
[3] = system: Rattus norvegicus; experiment: Antiallergic activity in rat reaginic passive cutaneous anaphylaxis (PCA) test upon intravenous administration; type: functional; conditions: read-out: ID50 (the source's name)
[4] = system: Rattus norvegicus; experiment: Antiallergic activity in rat reaginic passive cutaneous anaphylaxis (PCA) test upon peroral administration; NA means inactive; type: functional, organism-based

| Compound | ED50 [1] | ID50 [2] | ED50 [3] | ID50 [4] |
| --- | --- | --- | --- | --- |
| Cc1cccc(C)c1NN=C1CCC(C)n2c1ncc(C(=O)O)c2=O (centres undefined) | 320 µmol/kg | Insoluble |  |  |
| Cc1cccc(NN=C2CCC(C)n3c2ncc(C(=O)O)c3=O)c1C (centres undefined) | > 100 µmol/kg | Insoluble |  |  |
| CC1CCC(=NNc2ccccc2)c2ncc(C(=O)NO)c(=O)n21 (centres undefined) | > 100 µmol/kg |  | > 100 µmol/kg |  |
| Cc1nc2n(c(=O)c1C(N)=O)C(C)CCC2=NNc1ccccc1 (centres undefined) | > 100 µmol/kg | Insoluble |  |  |
| CC1CCC(C)(N=Nc2ccccc2C(=O)O)c2ncc(C(=O)O)c(=O)n21 (centres undefined) | > 100 µmol/kg |  | > 100 µmol/kg |  |
| Cc1cc(C)c(NN=C2CCC(C)n3c2ncc(C(=O)O)c3=O)c(C)c1 (centres undefined) | 320 µmol/kg | Insoluble |  |  |
| CC1CCC(=NNc2ccccc2)c2ncc(C(=O)O)c(=O)n21 (centres undefined) | 1.2 µmol/kg |  | 0.6 µmol/kg |  |
| COc1cc(NN=C2CCC(C)n3c2ncc(C(=O)O)c3=O)cc(OC)c1 (centres undefined) | 100 µmol/kg |  | 0.42 µmol/kg |  |
| CC1CCC(=NNc2ccc(Cl)c(Cl)c2)c2ncc(C(=O)O)c(=O)n21 (centres undefined) | > 100 µmol/kg |  | 0.89 µmol/kg |  |
| CC1CC/C(=N\N)c2ncc(C(=O)O)c(=O)n21 (centres undefined) | > 100 µmol/kg |  | 42 µmol/kg |  |
| CNN=C1CCC(C)n2c1ncc(C(=O)O)c2=O (centres undefined) | > 100 µmol/kg |  | 17.5 µmol/kg |  |
| COc1cc(OC)c(NN=C2CCC(C)n3c2ncc(C(=O)O)c3=O)cc1Cl (centres undefined) | > 100 µmol/kg | Insoluble |  |  |
| Cc1cc(C)c(NN=C2CCC(C)n3c2ncc(C(=O)O)c3=O)cc1C (centres undefined) | 320 µmol/kg | Insoluble |  |  |
| CC1CCC(=NNc2c(Cl)cccc2Cl)c2ncc(C(=O)O)c(=O)n21 (centres undefined) | > 100 µmol/kg | Insoluble |  |  |
| Cc1cc(NN=C2CCC(C)n3c2ncc(C(=O)O)c3=O)ccc1Br (centres undefined) | > 100 µmol/kg | Insoluble |  |  |
| CCc1nc2n(c(=O)c1C(N)=O)C(C)CCC2=NNc1ccccc1 (centres undefined) | > 100 µmol/kg | Insoluble |  |  |
| O=C(O)c1cc(=O)c2c(OCC(O)COc3cccc4oc(C(=O)O)cc(=O)c34)cccc2o1 [CROMOLYN SODIUM] |  |  | 1 µmol/kg | inactive |
| CC1CCC(=NNc2ccccn2)c2ncc(C(=O)O)c(=O)n21 (centres undefined) | > 100 µmol/kg |  | 3.2 µmol/kg |  |
| Cc1ccc(NN=C2CCC(C)n3c2ncc(C(=O)O)c3=O)cc1C (centres undefined) | > 100 µmol/kg |  | 6.5 µmol/kg |  |
| CC1CCC(=NNc2cc([N+](=O)[O-])cc([N+](=O)[O-])c2)c2ncc(C(=O)O)c(=O)n21 (centres undefined) | > 100 µmol/kg |  | 3.4 µmol/kg |  |
| CC1CCC(N=Nc2ccccc2C(=O)O)=C2N(C)C=C(C(=O)O)C(=O)N21 (centres undefined) | > 100 µmol/kg |  | > 100 µmol/kg |  |

| Compound | ED50 [1] | ID50 [2] | ED50 [3] | ID50 [4] |
| --- | --- | --- | --- | --- |
| CC1CCC(=NNc2cccnc2)c2ncc(C(=O)O)c(=O)n21 (centres undefined) | > 320 µmol/kg |  | 0.54 µmol/kg |  |
| CC1CCC(=NN(C)c2ccccc2)c2ncc(C(=O)O)c(=O)n21 (centres undefined) | > 100 µmol/kg |  | 52.4 µmol/kg |  |
| CC1CCC(=NNc2cc(C(F)(F)F)cc(C(F)(F)F)c2)c2ncc(C(=O)O)c(=O)n21 (centres undefined) | > 100 µmol/kg | Insoluble |  |  |
| CC1CCC(=NNc2ccc(Cl)cc2Cl)c2ncc(C(=O)O)c(=O)n21 (centres undefined) | > 100 µmol/kg | Insoluble |  |  |
| CC1CCC(=NNc2ccc3ccccc3c2)c2ncc(C(=O)O)c(=O)n21 (centres undefined) | > 100 µmol/kg |  | 0.77 µmol/kg |  |
| CC1CCC(=NNc2cccc3ccccc23)c2ncc(C(=O)O)c(=O)n21 (centres undefined) | > 320 µmol/kg | Insoluble |  |  |
| Cc1nc2n(c(=O)c1C(=O)O)C(C)CCC2=NNc1ccccc1 (centres undefined) | > 320 µmol/kg |  | > 100 µmol/kg |  |
| Cc1c(NN=C2CCC(C)n3c2ncc(C(=O)O)c3=O)c(=O)n(-c2ccccc2)n1C (centres undefined) | > 100 µmol/kg |  | 31 µmol/kg |  |
| CC1CCC(=NNc2ccccc2C(=O)O)c2ncc(C(=O)O)c(=O)n21 (centres undefined) | > 100 µmol/kg |  | 0.48 µmol/kg |  |
| CC1CCC(=NNc2ccc3c(c2)OCO3)c2ncc(C(=O)O)c(=O)n21 (centres undefined) | > 100 µmol/kg |  | 0.33 µmol/kg |  |
| CC1CCC(C)(N=Nc2ccccc2)c2ncc(C(=O)O)c(=O)n21 (centres undefined) | > 100 µmol/kg |  | 35 µmol/kg |  |
| CC1CCC(N=Nc2ccccc2)=C2N(C)C=C(C(=O)O)C(=O)N21 (centres undefined) | > 100 µmol/kg | Insoluble |  |  |
| CC1CCC(=NNc2cc(Cl)ccc2O)c2ncc(C(=O)O)c(=O)n21 (centres undefined) | > 100 µmol/kg | Insoluble |  |  |
| CCc1nc2n(c(=O)c1C(=O)O)C(C)CCC2=NNc1ccccc1 (centres undefined) | > 320 µmol/kg |  | > 100 µmol/kg |  |
| CCOC(=O)c1cnc2n(c1=O)C(C)CCC2=NNc1c(C)n(C)n(-c2ccccc2)c1=O (centres undefined) | > 100 µmol/kg |  | 95 µmol/kg |  |
| CC1CCC(=NNc2ccc(Br)cc2Cl)c2ncc(C(=O)O)c(=O)n21 (centres undefined) | > 100 µmol/kg | Insoluble |  |  |
| Cc1cc(C)cc(NN=C2CCC(C)n3c2ncc(C(=O)O)c3=O)c1 (centres undefined) | > 320 µmol/kg | Insoluble |  |  |
| CC1CCC(=NNc2cc(Cl)cc(Cl)c2)c2ncc(C(=O)O)c(=O)n21 (centres undefined) | > 100 µmol/kg |  | 13.3 µmol/kg |  |
| CC1CCC(=NNc2ccccc2C(=O)O)c2ncc(C(=O)NO)c(=O)n21 (centres undefined) | > 100 µmol/kg |  | > 100 µmol/kg |  |
| Cc1cccc(Cl)c1NN=C1CCC(C)n2c1ncc(C(=O)O)c2=O (centres undefined) | > 100 µmol/kg | Insoluble |  |  |
| CC1CCC(=NNc2nn[nH]n2)c2ncc(C(=O)O)c(=O)n21 (centres undefined) | > 100 µmol/kg |  | > 100 µmol/kg |  |
